Assay results taken from US20130109751A1, “LSD-1 ENZYME INHIBITORS FOR INDUCING OSTEOGENIC DIFFERENTIATION” ([…].R.L., priority 2011, published 2013).

Tests used:
Format in all cases: cell-based, mice
W20-17 cells [1] = test: Alizarin Red staining of mineralised nodules under different growth conditions (minimum medium); conditions: 21 days, absence of dexamethasone and ascorbic acid, glycerol 2-phosphate necessary
Procedure: On the 21st day, the presence of mineralised matrix was evaluated by histochemical staining with Alizarin Red. The cells were washed with PBS, fixed with a 10% formaldehyde solution, and incubated with a 2% solution of Alizarin Red (pH 4.1-4.3) for one hour.
To evaluate the minimum composition of a medium capable of inducing the formation of mineralised matrix, W20-17 cells were seeded in a 96-well plate and cultured for 21 days under different growth conditions.
At the end of the treatment the cells were stained with Alizarin Red, as described in example 2, to evaluate the formation of mineralised nodules.

W20-17 cells [2] = test: Expression profile of osteogenic markers by real-time PCR; conditions: osteogenic medium, 21 days' treatment, normalised to GAPDH, vs osteogenic medium alone
LSD-1 = target: T1, LSD-1 (Mus musculus, UniProt Q6ZQ88); test: In vitro enzymatic activity assay of LSD-1 on W20-17 cells; conditions: osteogenic medium supplemented with compound, vs osteogenic medium
T1 construct: endogenous in cells; host or cells: W20-17 cells
Procedure: To evaluate whether the activity of enzyme LSD-1 is inhibited during osteogenic differentiation, an in vitro enzymatic activity assay was performed on W20-17 cells to assess the percentage inhibition of LSD-1 activity under different conditions.

SMILES | mineralisation (Alizarin Red, mineralised nodules) (W20-17 cells [1]) | expression of late marker osteocalcin (W20-17 cells [2]) | percentage inhibition of LSD-1 activity (LSD-1)
N[C@@H]1C[C@H]1c1ccccc1 (racemic) [tranylcypromine, reference compound] | promotes mineralisation | – | –
NC1CC1c1ccc(NC(=O)C(Cc2ccccc2)NC(=O)OCc2ccccc2)cc1 (stereo not shown) [MC2580] | promotes mineralisation | most marked | percentage inhibition increases
